# In US12404263B2, “ASK1 inhibiting agents” (BIOGEN MA INC., priority 2018, dated 2025):
# Tests used:
# GST-hASK1 = target: T1, GST-hASK1 (Homo sapiens, UniProt Q99683); test: ASK1 TR-FRET assay; assay type: biochemical; conditions: 5 nM GST-hASK1, 100 μM ATP, 2 μM STK Substrate 3
# T1 construct: GST (N); purchased Life Technologies PV4011
# T1 sequence (Q99683 1-1374): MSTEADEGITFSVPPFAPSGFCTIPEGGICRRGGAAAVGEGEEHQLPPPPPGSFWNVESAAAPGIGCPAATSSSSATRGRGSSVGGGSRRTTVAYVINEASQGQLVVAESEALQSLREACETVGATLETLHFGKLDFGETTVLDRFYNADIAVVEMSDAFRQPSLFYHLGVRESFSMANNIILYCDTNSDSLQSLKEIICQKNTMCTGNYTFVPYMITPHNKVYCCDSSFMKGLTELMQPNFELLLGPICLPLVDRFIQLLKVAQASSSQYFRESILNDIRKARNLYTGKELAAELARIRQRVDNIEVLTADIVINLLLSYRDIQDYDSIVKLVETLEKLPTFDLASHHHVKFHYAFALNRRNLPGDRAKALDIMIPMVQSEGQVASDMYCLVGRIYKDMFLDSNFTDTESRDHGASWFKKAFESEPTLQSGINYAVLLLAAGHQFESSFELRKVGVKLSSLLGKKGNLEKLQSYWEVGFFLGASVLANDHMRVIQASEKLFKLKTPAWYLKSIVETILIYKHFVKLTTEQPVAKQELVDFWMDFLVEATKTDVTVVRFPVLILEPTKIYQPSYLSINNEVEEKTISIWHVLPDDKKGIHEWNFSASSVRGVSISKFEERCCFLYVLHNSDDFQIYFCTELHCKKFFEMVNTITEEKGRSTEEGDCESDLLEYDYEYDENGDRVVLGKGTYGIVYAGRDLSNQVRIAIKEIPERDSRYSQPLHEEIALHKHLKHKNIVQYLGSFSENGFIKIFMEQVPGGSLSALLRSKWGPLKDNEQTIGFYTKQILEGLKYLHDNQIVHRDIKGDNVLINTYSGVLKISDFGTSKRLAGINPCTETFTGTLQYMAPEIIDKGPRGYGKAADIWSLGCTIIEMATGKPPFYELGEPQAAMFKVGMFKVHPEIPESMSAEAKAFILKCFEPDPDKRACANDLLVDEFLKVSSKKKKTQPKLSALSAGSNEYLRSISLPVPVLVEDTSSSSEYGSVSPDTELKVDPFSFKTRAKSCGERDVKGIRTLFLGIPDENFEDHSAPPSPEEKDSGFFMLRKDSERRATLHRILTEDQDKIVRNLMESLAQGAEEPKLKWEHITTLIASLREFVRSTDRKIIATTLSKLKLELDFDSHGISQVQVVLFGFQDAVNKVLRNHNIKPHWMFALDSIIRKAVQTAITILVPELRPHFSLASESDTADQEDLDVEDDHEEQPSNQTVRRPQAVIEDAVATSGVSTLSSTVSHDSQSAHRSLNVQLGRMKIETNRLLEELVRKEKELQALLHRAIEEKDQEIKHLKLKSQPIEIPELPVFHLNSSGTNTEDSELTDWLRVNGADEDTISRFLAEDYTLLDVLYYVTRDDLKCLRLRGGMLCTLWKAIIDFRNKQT
# Method: The protein kinase activity of 5 nM GST-hASK1 (Life Technologies PV4011) was assayed with 100 μM ATP and 2 μM of HTRF biotinylated STK Substrate 3 (CisBio Kit 62ST3PEJ), at ambient temperature in 25 mM Hepes, pH 7.5, 50 mM NaCl, 10 mM MgCl2, 0.02% Brij-35, 1 mM DTT, and 1% DMSO.
# Briefly, 20 μL aliquots of a 1.5× stock of ASK1, STK Substrate 3 and Assay Buffer were distributed in the wells of a white 384 well Optiplate, prior to addition of 0.3 μL of a 100× compound stock in DMSO, or DMSO alone in Blank and 100% Activity Controls. After a 10 minute pre-incubation, ASK1 protein kinase activity was initiated by addition of 10 μL of 300 μM ATP. After 5 hours, the kinase activity was quenched by addition of 30 μL of CisBio Kit 62ST3PEJ components: 0.5 μM of Streptavidin XL665; and 100×STK Antibody-Eu Cryptate; in Detection Buffer containing sufficient EDTA to chelate Mg^2+ in the assay buffer. The plates were read after 65 minutes in an Envision Plate reader, with the following components and settings: Top Mirror, Lance Delfia Dual (662); UV Ex Filter, 320 nm (111); Emission Filter for donor, 615 nm (203); Emission Filter for Acceptor; 665 nm (205); and 100 μsec delay, with 665/615 ratio output. […]
# [1] = target: T2, ASK1 T838 auto phosphorylation (Homo sapiens, UniProt Q99683); test: ASK1 (AUTO PHOS T838) assay in HEK-293T cells, MSD format; assay type: cell-based; conditions: HEK-293T cells transfected with ASK1-V5, 1 hr compound incubation; read-out: IC50
# T2 construct: transfected with 9 μg of ASK1-V5 tagged full length plasmid; expressed in transfected cells; host or cells: HEK-293T
# T2 sequence (Q99683 1-1374): T1 sequence (Q99683 1-1374)
# Method: ASK1 T838 auto phosphorylation was measured in HEK-293T cells using MSD assay format. HEK 293T cells were seeded in 15 cm plates at a density of 18 million cells and 20 mL DMEM with 10% FBS, Pen/Strep media. The plates were incubated at 37° C. overnight. Media on plates was changed to OPTI-MEM, serum free media and cells were transfected with 9 μg of ASK1-V5 tagged full length plasmid using Lipofectamine 2000 (Invitrogen) and the plates were incubated at 37° C. overnight. Cells were trypsinized, counted on Nexcellometer and plated into 96 well tissue culture plates with 100,000 cells/well and 200 μL media. Cells were incubated for 4 hr at 37° C. then ASK1 compounds were added using a HP 300e. Compounds were tested at 20 μM with 3 fold, 10 point dilution points then incubated for 1 hr at 37° C. A lysis buffer (Cell Signaling) was prepared with protease and phosphatase inhibitor and maintained at 4° C. until use. Media from cells was discarded and 120 μL of cold lysis buffer was added to the cells, the plate was shaken 4° C. for 1 hr. Lysate was mixed using Apricot liquid handler; aspirating up and down 16 times at high speed using 50 μL volume. 50 μL of cell lysates were transferred to a pre-coated MSD plates containing mouse anti-V5 antibody (1:500 dilution) and washed 3× with MSD wash buffer (TBST) and blocked with a 3% BSA solution. Plates were then incubated on a plate shaker overnight at 4° C. Plates were washed 3× with MSD wash buffer and 50 μL of rabbit anti-pASK1 T838 antibody was added to the wells and incubated for 2 hr at room temperature on a plate shaker. Plates were then washed and 50 μL of goat anti-rabbit sulfa-tag (1:500 dilution) was added to wells, and incubated for 1 hr at room temperature on a plate shaker. Plates were washed 3× and 150 μL of 2×MSD Read buffer was added to wells. Plates were immediately read on a MSD Instrument Reader where chemoluminecense signal was measured. Data was analyzed using Graph Pad or Genedata, the data was normalized and plotted, % activity versus log of compound concentration. The IC50 values were obtained from a 4 parameter fit.
# [2] = In vivo brain penetration (rat Kpuu); conditions: brain and plasma (unbound concentrations), IV infusion four hours, 1 mg/kg, steady state
# Method: To evaluate the CNS penetration of the compounds described herein, several compounds were selected for in vivo rat Kpuu studies. In these experiments the compounds are administered via an IV infusion (using N,N-dimethylacetamide:ethanol:1,2-propylene glycol:water in a 1:1:3:5 ratio as the vehicle) in the carotid artery for a period of four hours (1 mg/kg, 0.1 mg/mL) to reach steady state. After this time the plasma and brain concentration levels are quantified, and the values are adjusted by the measured protein binding in plasma and brain homogenate to calculate the K puu (see Di, L.; Kerns, E. H. Blood-Brain Barrier in Drug Discovery (Wiley)) according to the equation below. […]
# Plasma and brain protein binding values were generated via the Rapid Equilibrium Dialysis method. […] At the conclusion of incubation samples were taken from both matrix and buffered compartments, matrix-matched using blank buffer and matrix, extracted with acetonitrile, diluted with water, and analyzed utilizing an Agilent RapidFire 365 high-throughput LC coupled with MS/MS detection via an AB Sciex 5500. Free fractions (fu) were then calculated by comparing internal standard/analyte peak-area ratios of matrix and buffered compartments.
# Total drug concentration in plasma and brain tissue was measured via well-established bioanalytical extraction (protein precipitation) and detection methods (LC-MS/MS). […]
# ASK1/MAP3K5 = target: T3, ASK1/MAP3K5 (Homo sapiens, UniProt Q99683); test: ASK1/MAP3K5 assay by Reaction Biology Corp. (33P-ATP filter-binding); assay type: biochemical; conditions: 20 μM MBP, 100 μM ATP
# T3 construct: purchased Reaction Biology Corp. (Malvern, PA)
# T3 sequence (Q99683 1-1374): T1 sequence (Q99683 1-1374)
# Method: Alternatively, the protein kinase inhibitory activity of the compounds described herein were tested using the ASK1/MAP3K5 assay by Reaction Biology Corp. (Malvern, PA). The assay procedure follows (and is also available on the Reaction Biology Corp. website). • Base Reaction Buffer: 20 mM Hepes (pH 7.5), 10 mM MgCl2, 1 mM EGTA, 0.02% Brij35, 0.02 mg/mL BSA, 0.1 mM Na3VO4, 2 mM DTT, 1% DMSO; • Substrate: 20 μM of myelin basic protein (MBP) and 100 μM ATP; • Protein kinase: ASK1/MAP3K5. Reaction Procedure: • 1. Prepare indicated substrate in freshly prepared Base Reaction Buffer. • 2. Deliver any required cofactors to the substrate solution. • 3. Deliver indicated kinase into the substrate solution and gently mix. • 4. Deliver compounds in DMSO into the kinase reaction mixture by Acoustic; technology (Echo550; nanoliter range), incubate for 20 minutes at room temperature. • 5. Deliver ^33P-ATP (specific activity 10 μCi/μL) into the reaction mixture to initiate the reaction. • 6. Incubate kinase reaction for 2 hours at room temperature. • 7. Reactions are spotted onto P81 ion exchange paper. • 8. Detect kinase activity by filter-binding method.
# MDR1 = target: T4, MDR1 (Homo sapiens, UniProt P08183); test: MDR1-MDCK assay; assay type: in vitro ADME; conditions: read-out: in vitro ER (efflux ratio)
# T4 construct: host or cells: MDCK
# T4 sequence (P08183 whole entry): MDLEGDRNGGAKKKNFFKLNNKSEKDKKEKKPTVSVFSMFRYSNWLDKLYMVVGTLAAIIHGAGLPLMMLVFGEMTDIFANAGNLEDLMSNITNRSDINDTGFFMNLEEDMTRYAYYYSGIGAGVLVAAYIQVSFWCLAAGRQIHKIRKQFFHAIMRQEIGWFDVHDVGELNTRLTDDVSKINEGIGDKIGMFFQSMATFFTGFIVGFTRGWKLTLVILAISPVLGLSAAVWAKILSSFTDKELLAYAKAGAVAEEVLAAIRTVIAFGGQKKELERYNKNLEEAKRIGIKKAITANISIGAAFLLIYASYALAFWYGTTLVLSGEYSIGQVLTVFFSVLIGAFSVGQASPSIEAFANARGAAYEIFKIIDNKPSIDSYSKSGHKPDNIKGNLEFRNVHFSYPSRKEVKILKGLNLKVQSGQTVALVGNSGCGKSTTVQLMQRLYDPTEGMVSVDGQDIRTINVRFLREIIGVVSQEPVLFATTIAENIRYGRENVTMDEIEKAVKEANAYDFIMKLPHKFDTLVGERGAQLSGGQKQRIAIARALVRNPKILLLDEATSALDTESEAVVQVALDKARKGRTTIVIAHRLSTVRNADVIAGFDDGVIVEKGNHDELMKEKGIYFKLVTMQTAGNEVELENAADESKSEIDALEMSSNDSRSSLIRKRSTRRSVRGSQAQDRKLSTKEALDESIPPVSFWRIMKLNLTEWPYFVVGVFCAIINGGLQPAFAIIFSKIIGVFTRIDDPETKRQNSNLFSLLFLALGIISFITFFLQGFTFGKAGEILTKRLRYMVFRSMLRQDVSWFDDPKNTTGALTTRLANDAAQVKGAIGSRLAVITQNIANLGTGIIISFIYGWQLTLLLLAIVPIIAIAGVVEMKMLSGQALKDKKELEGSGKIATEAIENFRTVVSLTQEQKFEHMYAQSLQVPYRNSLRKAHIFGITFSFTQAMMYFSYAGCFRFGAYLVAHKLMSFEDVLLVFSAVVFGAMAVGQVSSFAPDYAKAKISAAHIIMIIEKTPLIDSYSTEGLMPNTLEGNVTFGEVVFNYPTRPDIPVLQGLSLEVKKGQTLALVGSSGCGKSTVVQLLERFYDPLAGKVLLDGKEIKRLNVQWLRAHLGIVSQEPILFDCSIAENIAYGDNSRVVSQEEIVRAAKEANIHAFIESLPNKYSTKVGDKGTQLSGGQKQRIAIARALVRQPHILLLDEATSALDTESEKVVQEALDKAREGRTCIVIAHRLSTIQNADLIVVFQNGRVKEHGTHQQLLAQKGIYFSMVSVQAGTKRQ
# Method: To predict the CNS penetration of the compounds described herein, several compounds were selected for an in vitro MDR1-MDCK assay. These experiments are conducted using human MDR1 transfected MDCK cells (Absorption Systems, Exton, PA) and the compounds are tested at 1 μM concentration prepared in transport buffer (Hank's balanced salt solution with HEPES) and following the steps below: • 1. MDR1-MDCK cell are cultured for 7 days in 96 well transwell insert plates (Corning). Insert plates are washed before the assay and TEER (trans epithelial electric resistance) is measured. • 2. These plates are loaded with test compound solution 85 μL for A-B transport and 260 μL for B-A transport in the respective donor compartment. The volume of receiver buffer (Transport buffer supplemented with 1% BSA) in the respective receiver compartment is 250 μL and 75 μL. • 3. 10 μL samples is taken from donor compartment (T=0 timepoint) • 4. Assay plates are incubated for 120 minutes. • 5. At 120 minutes (T=120 timepoint) samples from respective donor (10 μL) and receiver (50 μL) compartments is taken. • 6. After addition of 40 μL transport buffer with BSA to donor samples, crash solution (Acetonitrile with internal standard, 110 μL) is added to all samples. • 7. […] Samples are analyzed using LC-MS/MS coupled with high throughput injection system. • 9. […]
SMILES,IC50 (GST-hASK1) [nM],IC50 [1] [nM],Kp uu at 4 h [2],IC50 (ASK1/MAP3K5) [nM],"efflux ratio at 120 min, 1 μM (MDR1)"
"COc1ncccc1C(=O)Nc1cccc(-c2nncn2C(C)C)n1 [Compound 1, N-(6-(4-Isopropyl-4H-1,2,4-triazol-3-yl)pyridin-2-yl)-2-methoxynicotinamide]",< 100,≤ 1000,,,
"COc1ncccc1C(=O)Nc1cccc(-c2nncn2C2(C(F)(F)F)CC2)n1 [Compound 16, 2-Methoxy-N-(6-(4-(1-(trifluoromethyl)cyclopropyl)-4H-1,2,4-triazol-3-yl)pyridin-2-yl)nicotinamide]",,≤ 1000,0.41,≤ 100,< 3
